According to PMC12040969, “Design, synthesis, in silico studies, and apoptotic antiproliferative activity of novel thiazole-2-acetamide derivatives as tubulin polymerization inhibitors” (Frontiers in Chemistry, 2025):

Assays:
[1] = Cell viability assay (MTT), normal cells; format: cell-based; conditions: human, MCF-10A normal mammary gland epithelial cells, four-day incubation
Method: The impact of novel compounds 10a-o and 13a-e on cell viability was examined using the MCF-10A (human mammary gland epithelial) normal cell line. The MTT test was employed to assess the cell viability of the novel compounds after a four-day incubation with MCF-10A cells ([El-Sherief et al., 2019]; [Ramadan et al., 2020]).
The effects of compounds 10a-o and 13a-e on cell viability were assessed using the human mammary gland epithelial normal cell line (MCF-10A). The MTT assay assessed the cell viability of compounds 10a-o and 13a-e following a four-day incubation with MCF-10A cells ([El-Sherief et al., 2019]; [Ramadan et al., 2020]). Check Supplementary Appendix A for additional information.
4.2. Biological evaluation
4.2.1 Cell Viability assay (MTT assay)
MTT assay was performed to investigate the effect of the synthesized compounds on mammary epithelial cells (MCF-10A). The cells were propagated in medium consisting of Ham's F-12 medium/ Dulbecco's modified Eagle's medium (DMEM) (1:1) supplemented with 10% foetal calf serum, 2 mM glutamine, insulin (10 μg/mL), hydrocortisone (500 ng/mL) and epidermal growth factor (20 ng/mL). Trypsin ethylenediamine tetra acetic acid (EDTA) was used to passage the cells after every 2-3 days. 96-well flat-bottomed cell culture plates were used to seed the cells at a density of 10^4 cells mL-1. The medium was aspirated from all the wells of culture plates after 24 h followed by the addition of synthesized compounds (in 200 μL medium to yield a final concentration of 0.1% (v/v) dimethyl sulfoxide) into individual wells of the plates.
Four wells were designated to a single compound. The plates were allowed to incubate at 37°C for 96 h. Afterwards, the medium was aspirated and 3-[4,5-dimethylthiazol-2-yl]-2,5-diphenyltetrazolium bromide (MTT) (0.4 mg/mL) in medium was added to each well and subsequently incubated for 3 h. The medium was aspirated and 150 μL dimethyl sulfoxide (DMSO) was added to each well. The plates were vortexed followed by the measurement of absorbance at 540 nm on a microplate reader. The results were presented as inhibition (%) of proliferation in contrast to controls comprising 0.1%

tubulin = assay: Tubulin polymerization inhibition assay (Cytoskeleton kit);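 on all read-outs here: Cell-free tubulin polymerization read by fluorescent reporter enhancement over a 30 min reaction, with the compound-free kit control taken as 100% activity and inhibition relative to it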; conditions: for Tub %inh / Tub. enzyme inhibition assay %inhibition: 30 min; for Tub %inh: YB-EGY run; for Tub K.Activity: EC = 120, YB-EGY run; for IC50: read-out: Tubulin inhibition IC50 ± SEM, triplicate for each tested concentration; for Tub. enzyme inhibition assay %inhibition: codes 522-537 run; for Tub. enzyme inhibition assay K. Activity: control = 120, codes 522-537 run; for Tub. (IC50) IC50±SD: supplement raw data, lab codes

SMILES	viability at 96 h, 50 µM [1] [%]	Tub %inh (tubulin; conc 0.1 (unit not given)) [%]	Tub K.Activity (tubulin; conc 0.1 (unit not given))	Tub %inh (tubulin; conc 1 (unit not given)) [%]	Tub K.Activity (tubulin; conc 1 (unit not given))	Tub %inh (tubulin; conc 10 (unit not given)) [%]	Tub K.Activity (tubulin; conc 10 (unit not given))	Tub %inh (tubulin; conc 50 (unit not given)) [%]	IC50 (tubulin) [µM]	Tub. enzyme inhibition assay %inhibition (tubulin; conc 0.01 (unit not given)) [%]	Tub. enzyme inhibition assay K. Activity (tubulin; conc 0.01 (unit not given))	Tub. enzyme inhibition assay %inhibition (tubulin; conc 0.1 (unit not given)) [%]	Tub. enzyme inhibition assay K. Activity (tubulin; conc 0.1 (unit not given))	Tub. enzyme inhibition assay %inhibition (tubulin; conc 1 (unit not given)) [%]	Tub. enzyme inhibition assay K. Activity (tubulin; conc 1 (unit not given))	Tub. enzyme inhibition assay %inhibition (tubulin; conc 10 (unit not given)) [%]	Tub. enzyme inhibition assay K. Activity (tubulin; conc 10 (unit not given))	Tub. enzyme inhibition assay %inhibition (tubulin; conc 100 (unit not given)) [%]	Tub. enzyme inhibition assay K. Activity (tubulin; conc 100 (unit not given))	Tub. (IC50) IC50±SD (tubulin) [µg/mL]	also measured
Cc1nc(SCC(=O)Nc2nc(-c3ccccc3)cs2)sc1C(=O)/C=C/c1ccc(Cl)cc1 [Compound 10b, (E)-2-((5-(3-(4-chlorophenyl)acryloyl)-4-methylthiazol-2-yl)thio)-N-(4-phenylthiazol-2-yl)acetamide]	91	5.79	113.05	23.9	91.287	41.4	70.334	64.5	8.75 ± 0.27												Tub K.Activity (tubulin; conc 50 (unit not given)): 42.629; Tub %inh (tubulin; conc 100 (unit not given)): 88.7%; Tub K.Activity (tubulin; conc 100 (unit not given)): 13.577
Cc1nc(SCC(=O)Nc2nc(-c3ccccc3)cs2)sc1C(=O)/C=C/c1ccc(F)cc1 [Compound 10c, (E)-2-((5-(3-(4-fluorophenyl)acryloyl)-4-methylthiazol-2-yl)thio)-N-(4-phenylthiazol-2-yl)acetamide]	89	4.47	114.64	12.4	105.09	25.6	89.245	52.5	22.5 ± 0.69												Tub K.Activity (tubulin; conc 50 (unit not given)): 56.999; Tub %inh (tubulin; conc 100 (unit not given)): 83%; Tub K.Activity (tubulin; conc 100 (unit not given)): 20.424
COc1ccc(/C=C/C(=O)c2sc(SCC(=O)Nc3nc(-c4ccccc4)cs3)nc2C)cc1 [Compound 10e, (E)-2-((5-(3-(4-methoxyphenyl)acryloyl)-4-methylthiazol-2-yl)thio)-N-(4-phenylthiazol-2-yl)acetamide]	92								15.3 ± 0.49	2.57	116.92	9.6	108.49	20.4	95.5	46	64.791	83.3	19.996	7.77 ± 0.25	
Cc1nc(SCC(=O)Nc2nc(-c3ccc(Cl)cc3)cs2)sc1C(=O)/C=C/c1ccc(Cl)cc1 [Compound 10g, (E)-2-((5-(3-(4-chlorophenyl)acryloyl)-4-methylthiazol-2-yl)thio)-N-(4-(4-chlorophenyl)thiazol-2-yl)acetamide]	89								59.4 ± 3.78	0.65	119.22	5.24	113.71	15.3	101.63	32.3	81.206	70.5	35.432	32.45 ± 2.07	
Cc1ccc(/C=C/C(=O)c2sc(SCC(=O)Nc3nc(-c4ccc(Cl)cc4)cs3)nc2C)cc1 [Compound 10i, (E)-N-(4-(4-chlorophenyl)thiazol-2-yl)-2-((4-methyl-5-(3-(p-tolyl)acryloyl)thiazol-2-yl)thio)acetamide]	91								33.5 ± 1.21	1.51	118.18	5.52	113.37	19.3	96.892	41.3	70.409	72.1	33.442	17.63 ± 0.64	
